| melting point [°C] | Compound |
| --- | --- |
| 212 to 215 | CNS(=O)(=O)Cc1ccc(Nc2nc(Nc3ccccc3)c3cc(OC)ccc3n2)cc1 |
| 288 to 291 | COC(=O)CCC(=O)Nc1ccc2c(=O)n3c(nc2c1)C(=Cc1ccccc1)CC3 |
| 193 to 194 | CN1CCN(c2ccccc2C=C2NC(=O)N(c3ccc(Cl)cc3)C2=O)CC1 |
| 223 to 225 | Cc1oc(-c2ccccc2)nc1CCOc1ccc(S(=O)(=O)Nc2cc(Cl)ccc2C(=O)O)cc1 |
| 122 to 123 | O=Cc1cccc(NC(=O)c2ccccc2)c1 |
| 129 to 131 | Cc1cc(SCc2cnc(-c3ccc(C(F)(F)F)cc3)nc2C2CC2)ccc1OC(C)(C)C(=O)O |
| 212 to 215 | Cc1cccc(Cl)c1C(=O)N[C@@H](Cc1ccc(NC(=O)c2c(Cl)cccc2Cl)cc1)C(=O)O |
| 182 to 183 | CSc1c(CC(=O)O)ccc2c3ccccc3n(Cc3ccccc3)c12 |
| 215 | COc1cc(C(=O)O)ccc1Cc1c(Cl)n(C)c2ccc(CCNC(=O)N(C)C)cc12 |
| 80 to 83 | Fc1ccc(-c2cnc(SC(F)(F)F)nc2-c2ccc(F)cc2)cc1 |
| 109 to 111 | CCCOCc1nc(C(C)(C)O)c(C(=O)O)n1Cc1ccc(-c2ccccc2C(=O)O)cc1 |
| 254 to 255 | CC1(C)CCC(C)(C)c2cc3cc(-c4ccc(C(=O)O)s4)ccc3cc21 |
| 254 to 264 | Cn1ncnc1-n1cc(C(=O)O)c(=O)c2cc(F)c(F)cc21 |
| 97 to 98 | COc1nc2ccccc2cc1NC(=O)N1CCN(c2cccc(Cl)c2)CC1 |
| 142 to 143 | CCOC(=O)c1c(CC)nn2c(-c3cccc(C(F)(F)F)c3)ccnc12 |
| 254 to 257 | CCOC(=O)c1cn(NC=O)c2cc(-n3cccc3)c(F)cc2c1=O |
| 218 to 220 | CC(=O)NCCCc1c[nH]c(-c2ccc(F)cc2)c1-c1ccncc1 |

| melting point [°C] | Compound |
| --- | --- |
| 126 to 128 | O=C(Nc1ccc(-n2nc(C(F)(F)F)cc2C(F)(F)F)cc1)c1ccc(F)cc1F |
| 246 to 248 | CCC(=O)NNc1ccnc2c(NC(=O)c3c(Cl)cccc3Cl)cccc12 |
| 188 | CS(=O)(=O)Nc1ccc(-n2nc(C(F)(F)F)nc2-c2ccc(S(C)(=O)=O)cc2)cc1 |
| 113 to 114 | CS(=O)(=O)c1ccc(-c2cnn(CC(F)(F)F)c(=O)c2OC2CCc3ccccc32)cc1 (configuration not stated) |
| 146 to 148 | Cc1ccc(C2CC(n3cncn3)c3ccccc3N2)cc1 (configuration not stated) |
| 171 to 174 | O=C(NNC(=O)c1occ(-c2ccccc2)c1-c1ccccc1)c1ccc(O)c(I)c1 |
| 154 to 155 | CCOC(=O)c1nc(-c2cccc(F)c2)c(-c2ccc(=O)n(C(C)C)n2)s1 |
| 160 to 161 | CCOC(=O)c1nn(-c2ccc(Cl)cc2)c(=O)c(C#N)c1C |
| 272 to 275 | CCCc1nn(C)c2c(=O)[nH]c(Cc3ccc(NC(C)=O)cc3)nc12 |
| 286 to 291 | COc1ccc(-c2[nH]nc(C(=O)Oc3ccccc3)c2N)cc1 |
| 133 to 135 | CSc1ccc(Nc2nc(=O)cc(N)n2-c2ccccc2)cc1 |
| 245 to 247 | O=C1CCC(c2ccc(N=Cc3ccc(C(F)(F)F)cc3)cc2)=NN1 |
| 152 to 154 | Cn1c(C(F)(F)F)cc(=O)n(-c2cc(OS(=O)(=O)c3ccc(Cl)cc3)c(Cl)cc2F)c1=O |
| 120 to 122 | CCS(=O)(=O)Nc1ccc(C(O)CNCC2CCc3ccccc3C2=O)cc1 (configuration not stated) |
| 170 | CC(=O)N1CC(=Cc2ccncc2)C(=O)c2ccccc21 |
| > 257 | Cc1ccc(=O)n(C2c3cc(C#N)ccc3OC(C)(C)C2O)n1 (configuration not stated) |
| 196 to 199 | C#CCNC(=O)c1cccc(F)c1Nc1nc(Nc2ccc3c(c2)OCCCN3C(C)=O)ncc1Cl |

The remaining lines, values behind:

| Compound | melting point [°C] |
| --- | --- |
| CN1CCCC(Cn2nc(-c3c(-c4ccccc4)nn4ccccc34)ccc2=O)C1 (configuration not stated) | 159 to 160 |
| Cc1c(C#N)c(-c2ccc(C#N)cc2)c(C)n1Cc1ccc(Cl)c(COC(=O)CCC(=O)O)c1 | 149 to 151 |
| CCC(C(CC(=O)OC)c1ccc(Cl)cc1Cl)[N+](=O)[O-] (configuration not stated) | 234 to 237 |
| COc1ccc(-c2c(Br)oc3cc(OC)cc(OC)c23)cc1 | 125 to 126 |
| Cc1nc2ccccn2c(=O)c1CCN1CCC(C(=O)c2ccccc2)CC1 | 122 |
| CN(C)CCOc1cc(C(=O)N2CCC(N(C)CCc3ccccc3)CC2)ccc1-n1cncn1 | 83 to 85 |
| CC(=O)OCc1cc2c3ccccc3[nH]c(=O)n2n1 | 177 to 179 |
| CC(=O)N1CCc2c(S(=O)(=O)Cl)ccc(Cl)c2C1 | 105 to 115 |
| CCOC(=O)c1c(C(F)(F)F)nc(C(F)F)c(C(=O)OC)c1C1CO1 (configuration not stated) | 57.5 to 59 |
| O=C(O)COc1ccc2c(-c3ccccn3)noc2c1Cl | 255 to 256 |
| CCNc1nc(C)c(-c2ccnc(Nc3cc(Cl)c(N4CCOCC4)c(Cl)c3)n2)s1 | > 300 |
| O=C(OCC(Cl)(Cl)Cl)N1CCC(=C2c3ccccc3Oc3ccccc32)CC1 | 132 to 134 |
| Cc1nccn1NCc1cc(C(C)(C)C)c(O)c(C(C)(C)C)c1 | 181 to 182 |
| Clc1cc(N2CCC3(CC2)OCCO3)nc(N2CCC3(CC2)OCCO3)n1 | 130 to 131 |
| COc1ccc2c(c1)C(=O)C(=Cc1cccnc1)CO2 | 127 to 131 |
| Cc1cn2c(n1)Cc1ccccc1NC2=O | 234 to 236 |
| C[C@H]1CCCC(C)(C)[C@@H]1[C@H](O)c1ccc2c(c1)CCN(C(N)=O)C2 | 99.1 to 101 |
| c1ccc2nc3[nH]ncc3cc2c1 | 104 to 106 |
| Oc1ccccc1N1CCC(CNC[C@H]2COc3ccc(Cl)cc3O2)CC1 | 84 to 86 |
| Nc1nc2c(s1)CCN(CC=Cc1cccc([N+](=O)[O-])c1)CC2 | 165 to 168 |
| CC(=O)c1cc2sc(N)c(C#N)c2s1 | 285 |

| Compound | melting point [°C] |
| --- | --- |
| Cn1nc(-n2ncc(C(N)=S)c2N)c(Cl)c1OC(F)F | 156 |
| N#CCCSN1C(=O)CCC1=O | 110 to 112 |
| COc1ccc2cc([C@H](C)C(=O)OC[C@@]3(C)COC(C)(C)O3)ccc2c1 | 65 to 66 |
| OCCCc1ccc(Nc2c(-c3nnc(NCCN4CCOCC4)o3)ccc(F)c2F)c(F)c1 | 102 to 106 |
| COc1ccccc1N1CCN(CCNc2ccccn2)CC1 | 89 to 94 |
| O=C1OC(c2ccccc2)(c2ccc(-c3ccccc3)cc2)C(O)=C1OCc1ccccc1 (configuration not stated) | 190 to 195 |
| CS(=O)(=O)Nc1cccc(Nc2nc(NCCc3ccccn3)c3nc[nH]c3n2)c1 | 199 to 202 |
| ClCCc1c[nH]c(-c2ccc(OCc3ccccc3)cc2)n1 | 163 to 165 |
| CCN1C(=O)CN(c2ccccc2)C1=S | 122 |
| CC(=O)OC1CC2(C)C(C(C)=O)=CCC2C2CCC3=CC(=O)C=CC3(C)C12F (configuration not stated) | 202 to 203 |
| C=C1CC(C)(O)CCC2=C(C)CCC12 (configuration not stated) | 54 |
| O=C(O)c1cc(=O)c2ccc(OCCCCCOc3ccc4c(=O)ccoc4c3)cc2o1 | 113 to 116 |
| O=C(O)CCC/C=C\C[C@@H]1[C@H]2CC[C@H](C2)[C@H]1NC(=O)c1csc2ccc(O)cc12 | 141 to 142 |
| CC(=O)NC(Cc1c[nH]c2ccccc12)C(=O)OC(c1ccccc1)c1ccccc1 (configuration not stated) | 147 to 148 |
| CCNC(=O)c1c(Br)ccc(OC)c1[Si](C)(C)C | 200 |
| Cc1nc2cc(-c3ccc(C=C4SC(=O)NC4=O)cn3)cc(C34CC5CC(CC(C5)C3)C4)c2o1 | > 360 |
| COCc1ccc(Cn2cc(-c3ccc(OC)cc3)ccc2=O)cc1 | 72 |
| O=C(NC1CCOc2cc(C(=O)O)ccc21)OCc1ccccc1 (configuration not stated) | 227 to 228 |
| CNc1nc(N)ncc1-c1cccc(Cl)c1Cl | 233 to 237 |
| CCCC(=O)OC1CSC(Oc2cccnc2)C(OC(=O)CCC)C1OC(=O)CCC (configuration not stated) | 70 |
| O=C1c2ccccc2C(=O)N1CCCOc1ccc(OCc2ccccc2)cc1 | 141 to 143 |

| Compound | melting point [°C] |
| --- | --- |
| O=C(O)COc1ccc2cc(-c3sc4ccccc4c3C(=O)Cc3ccccc3)ccc2c1Br | 170 to 172 |
| CC1(C)Cc2c(Cl)c([N+](=O)[O-])cc(C(=O)O)c2O1 | 260 to 262 |
| Clc1nc(-c2ccc(Br)cc2)nc(Cl)c1-c1ccccc1 | 133 |
| CC(C)(C)OC(=O)NCCC(=O)c1c(Cl)cccc1[Si](C)(C)C | 51 to 52 |
| COCOCc1nc(N)c2ncc(O)nc2n1 | 210 to 212 |
| COc1cc(CCCO)c(Br)cc1OCc1ccc(Cl)cc1Cl | 102 to 103 |
| NCC(=O)c1ncn(Cc2ccccc2)c1N | 156 to 162 |
| COC(=O)C(C(C)C)S(=O)(=O)Nc1nc(OC)cc(OC)n1 (configuration not stated) | 94 to 95 |
| COc1ccc2c(c1)C(c1ccc(OCCN3CCCCC3)cc1)c1c-2ccc2cc(OC)ccc12 (configuration not stated) | 162 to 164 |
| Cc1ccccc1CN(O)C(=O)C(C)(C)CCl | 112 to 113 |
| COc1cc(OC)nc(Oc2ccccc2C(=O)OC(=O)c2ccccc2Oc2nc(OC)cc(OC)n2)n1 | 120 to 122 |
| Cc1ccc(OCc2ccccc2)c(C(CCO)c2ccccc2)c1 (configuration not stated) | 69 to 71 |
| CC(=O)NCCCCNc1ccc(NCCN(C)C)c2c1C(=O)c1ccccc1C2=O | 160 to 162 |
| COc1c(Cl)cc(C(C)(C)N(CC(C)=O)C(=O)Cc2ccccc2)cc1Cl | 126 to 127 |
| CC(C)(C)c1cc(SCCc2nnc(N)o2)cc(C(C)(C)C)c1O | 172 to 174 |
| Clc1ccc(C2(Cn3ccnc3)OCC(COc3ccc(-c4ccccc4)cc3)O2)c(Cl)c1 (configuration not stated) | 156 |
| CCOC(=O)N1CCC2(CC1)N=C(N)c1c(F)cccc1O2 | 114 to 116 |
| CCOc1cc(N(CC)CC)ccc1C1(c2ccc(N(C)C)cc2N(C)C)OC(=O)c2ccccc21 (configuration not stated) | 146 to 150 |
| Cc1nc2ccc3c(c2o1)O[C@@H](CN[C@H]1CC[C@@H](c2c[nH]c4ccc(F)cc42)CC1)CO3 | 80 to 82 |
| COc1ccc(C2CCCCC2)cc1-c1csc(NC(=O)N2CCN(C[C@@H]3CCCN(CC#N)C3)CC2)n1 | 106 |
| COc1ccc2nc(NC(=O)C(CC3CCCC3)c3ccc(S(=O)(=O)NCc4ccco4)cc3)sc2n1 (configuration not stated) | 244 to 247 |

Source: a melting point compilation (Tetko et al.; mined from patent text by program, amines drawn as free bases though some values may be those of a salt)
